Entries after “also recorded” stand apart in the source; their conditions may differ. Where two headings read alike, the source gives them in different places.
How the values were obtained:
[1] = biological target: T1, mouse TRPV4 (Mus musculus, UniProt Q9EPK8); test: Live-cell Fura-2 Ca2+ imaging in HEK293T cells transiently transfected with mouse TRPV4 (TRPV4-HEK293 cells); format: cell-based; conditions: for Ca2+ influx (F340/F380): 30 nM, 2 min; for Ca2+ influx in the presence of GSK219: agonist 30 nM, pre- and co-applied 100 nM GSK219; for Hill coefficient: concentration-response curve
T1 construct: expressed in transfected cells; host or cells: HEK293 (ATCC CRL-1573; elsewhere called HEK293T), transient, Lipofectamine 2000
T1 sequence (Q9EPK8 whole entry): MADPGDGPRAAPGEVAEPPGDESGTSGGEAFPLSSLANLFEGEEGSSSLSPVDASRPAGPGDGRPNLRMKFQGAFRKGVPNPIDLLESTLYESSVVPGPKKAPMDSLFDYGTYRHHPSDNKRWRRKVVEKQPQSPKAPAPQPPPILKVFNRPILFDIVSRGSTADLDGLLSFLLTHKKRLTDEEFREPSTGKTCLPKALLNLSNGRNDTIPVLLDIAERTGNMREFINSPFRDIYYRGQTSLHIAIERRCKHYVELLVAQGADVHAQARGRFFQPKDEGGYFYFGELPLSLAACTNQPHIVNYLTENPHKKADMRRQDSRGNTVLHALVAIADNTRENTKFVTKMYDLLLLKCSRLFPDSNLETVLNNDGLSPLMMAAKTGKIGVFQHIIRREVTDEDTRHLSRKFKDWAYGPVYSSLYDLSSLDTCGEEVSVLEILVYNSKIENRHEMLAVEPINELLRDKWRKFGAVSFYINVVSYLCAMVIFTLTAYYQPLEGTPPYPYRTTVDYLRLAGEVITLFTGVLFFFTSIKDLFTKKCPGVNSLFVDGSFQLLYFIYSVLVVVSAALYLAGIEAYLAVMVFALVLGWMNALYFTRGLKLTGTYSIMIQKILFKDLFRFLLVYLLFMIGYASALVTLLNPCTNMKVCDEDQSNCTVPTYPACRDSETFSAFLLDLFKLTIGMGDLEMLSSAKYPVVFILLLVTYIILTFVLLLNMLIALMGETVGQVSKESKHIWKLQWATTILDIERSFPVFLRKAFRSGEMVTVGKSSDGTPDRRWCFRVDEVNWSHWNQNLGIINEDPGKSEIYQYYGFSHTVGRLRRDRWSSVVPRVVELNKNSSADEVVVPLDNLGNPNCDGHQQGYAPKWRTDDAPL
Method: HEK293 cells were purchased from ATCC (ATCC CRL-1573; Manassas, VA, USA). As previously reported, the cells were tested for mycoplasma contamination before being cultured in the laboratory and grown as a monolayer in Dulbecco’s modified Eagle’s medium (DMEM) (Life Technologies, Carlsbad, CA, USA), supplemented with 10% fetal bovine serum (FBS; Life Technologies), 100 units/mL penicillin, and 100 μg/mL streptomycin. The cells were maintained in a humidified incubator at 37°C under 5% CO2. The cDNAs for mouse TRPV4 (mTRPV4) were transiently transfected into HEK293 cells for at least 24 hours using Lipofectamine 2000 (Invitrogen, Waltham, MA, USA).
(§1) Fura-2-based ratiometric measurements of intracellular calcium concentration ([Ca^2+]i) were performed as previously described. HEK293T cells transiently transfected with mTRPV4, primary keratinocytes, and macrophages were loaded with 4 μM Fura-2 AM (Life Technologies) in culture medium at 37°C for 60 minutes. The cells were then washed three times and incubated in Hanks’ balanced salt solution (HBSS) at room temperature for 30 minutes before use. Fluorescence intensities were measured at excitation wavelengths of 340 nm and 380 nm using an inverted Leica fluorescence microscope equipped with excitation filter wheels (340 nm, 360 nm, and 380 nm). The data were captured using LAS X imaging software (Leica Microsystems, Wetzlar, Germany). The Fura-2 ratios (F340/F380) were used to indicate changes in intracellular calcium ion concentrations ([Ca^2+]i) in response to stimulation. These values were derived from time-lapse imaging of each coverslip. The baseline of the cells was measured in the resting state, and once the value stabilized, the cells were treated with drugs. If no significant difference in the cell baseline was observed, cell viability was considered consistent. The activation threshold was defined as three standard deviations (SDs) above the mean, which corresponds to approximately 20% above the baseline.
GSK101 and the compounds were dissolved to create a concentration gradient (0.3 nM, 3 nM, 30 nM, 100 nM, 0.3 μM, 3 μM, 30 μM, 300 μM). Live-cell calcium imaging experiments were performed using fura-2-labeled TRPV4-HEK293 cells, and the fluorescence curves were recorded for each concentration of the compounds. The experiments were repeated three times, with the number of live cells in each field of view exceeding 100. The real-time fluorescence intensity curves from each experiment were statistically analyzed to calculate the cell response rate (the percentage of cells showing a fluorescence increase greater than 20% above baseline relative to the total number of cells). The concentration-response curves were fitted using GraphPad Prism (with the logarithm of concentration on the X-axis and the response rate on the Y-axis), and the Hill coefficient and EC50 values for each compound were automatically output.
To evaluate the efficacy of these synthetic analogues in vitro, we assessed their ability to activate TRPV4 using a Ca^2+ imaging assay. Because of the low expression of TRPV4 in native cells, we utilized a heterologous expression system and conducted Ca^2+ imaging in HEK293T cells that were transiently transfected with mouse TRPV4 (TRPV4-HEK293 cells).

[2] = biological target: T2, TRPV4 in primary keratinocytes (Mus musculus, UniProt Q9EPK8); test: Live-cell Ca2+ imaging in primary keratinocytes of neonatal TRPV4+/+ mice; format: cell-based; conditions: for [Ca2+]i response: 0.3 μM
T2 construct: endogenous in cells; host or cells: primary keratinocytes of neonatal (P0-P2) mice
T2 sequence (Q9EPK8 whole entry): as above
Method: Mice (P0-P2) were sacrificed and soaked in 10% povidone-iodine for 5 min. After being rinsed with 70% ethanol multiple times, the skin was removed and placed in a Petri dish containing PBS solution with 0.25% dispase II and incubated at 4°C overnight. The epidermis was then separated from the subcutaneous tissues, and keratinocytes were separated from the epidermis using a cell scraper and collected in 2 mL mouse keratinocyte media (Life Technologies). Dissociated cells were transferred to a 15% BSA column (1 mL) and centrifuged for 5 min at 1000 rpm. The cells were resuspended and seeded in […] Petri dishes containing 8-9 culture slides and placed in the culture incubator.
as §1, with “baseline. […]” for “baseline.”

[3] = biological target: T3, TRPV4 in peritoneal macrophages (Mus musculus, UniProt Q9EPK8); test: Live-cell Ca2+ imaging in freshly dissociated peritoneal macrophages from TRPV4+/+ mice; format: cell-based; conditions: for [Ca2+]i response: 0.3 μM
T3 construct: endogenous in cells; host or cells: freshly dissociated murine peritoneal macrophages
T3 sequence (Q9EPK8 whole entry): as above
Method: Peritoneal macrophages were isolated as previously described. The mice were euthanized by cervical dislocation, and their abdomens were dissected in the middle. Six milliliters of cold phosphate-buffered saline (PBS) was instilled into the peritoneal cavity, followed by gentle massage and subsequent aspiration. The samples were centrifuged for 5 min at 4°C and 300 g, resuspended in 2 mL PBS, and filtered using […] cell strainers. After another centrifugation, the cell suspensions were seeded in […] Petri dishes containing 8-9 culture slides and placed in a culture incubator (37°C, 5% CO2).
as §1, with “baseline. […]” for “baseline.”

[4] = test system: C57BL/6J mice; test: Mechanical pain test (von Frey, intraplantar injection); format: in vivo, mouse
Method: (§2) Eighty adult male wild-type C57BL/6J mice and thirty TRPV4 knockout C57BL/6J mice (weighing 23-25g) were purchased from Gem Pharmatech (Nanjing, China) and maintained under a 12-hour light-dark cycle at 24°C. For all experiments, mice aged 8 to 12 weeks were utilized and acclimatized to the experimental room one week before the experiments. The mice were assigned to the experimental and control groups (5 mice/group) using a computer-generated table of random numbers (0-10), as well as the sequence of dosing and measurement. All behavioral tests were recorded from a side view, and the evaluations were carried out by observers who were unaware of the animals' treatment and genotype.
The mice were allowed to acclimate for 1.5 hours in red plastic enclosures on a metal mesh platform. The test compounds (30 μM) were formulated in 0.9% saline solution and administered via intraplantar injection with a volume of 10 μL. Calibrated von Frey filaments (0.02, 0.04, 0.07, 0.16, 0.4, 0.6, 1.0, 1.4, and 2.0 g) were applied perpendicularly to the plantar surfaces of the mice's hind paws for up to 2 seconds, with sufficient force to cause the filament to bend. Brisk withdrawal or flinching of the hind paw during or immediately after application was considered a positive response. […] The threshold force required to elicit paw withdrawal (50% mechanical threshold) was obtained using the up-down method.

[5] = test system: C57BL/6J mice; test: Acute itch test (intradermal injection into the nape, scratches in 30 min); format: in vivo, mouse; conditions: 50 µL intradermal, wild-type mice
Method: as §2
Under 1 to 2% isoflurane anesthesia, the mice were shaved on the nape of the neck 5 to 7 days prior to the experiment. For all itch behavior experiments, the mice were acclimated in red plastic chambers for two days before measurements, with acclimation sessions lasting 2 hours on the first day and 1.5 hours on the day of measurement. GSK101 (30 μM) and the test compounds (30 μM and 300 μM) were formulated in 0.9% saline and administered via intradermal injection to the nape of the neck at a volume of 50 μL. […] Acute chemical itch was evaluated by counting the number of scratches within the 30-minute recording period.

[6] = dose-response of cell response rate, TRPV4-HEK293 cells, read-out: EC50
[7] = GSK219 1 μM pre- and co-applied

SMILES	Ca2+ influx (F340/F380) ([1]; TRPV4-HEK293 cells)	Ca2+ influx in the presence of GSK219 [1]	Hill coefficient ([1]; TRPV4-HEK293 cells)	EC50 [1, 6] [µM]	also measured
CC(C)CC(NC(=O)c1cc2ccccc2s1)C(=O)N1CC2(C1)CN(C(=O)C(CO)NS(=O)(=O)c1ccc(Cl)cc1)C2 (stereo not drawn) [LM6140]	no measurable current	–	–	–	–
CC(C)CC(NC(=O)c1cc2ccccc2s1)C(=O)N1CCN(C(=O)C(CO)NC(=O)c2ccc(Cl)cc2)CC1 (stereo not drawn) [LM0025]	no measurable current	–	–	–	–
CC(C)CC(NC(=O)c1cc2ccccc2s1)C(=O)N1CC2COCC(C1)N2C(=O)C(CO)NS(=O)(=O)c1ccc(Cl)cc1Cl (stereo not drawn) [GM1009]	–	abolished	0.2998	85.6	–
CC(C)CC(NC(=O)c1cc2ccccc2s1)C(=O)N1CC2(C1)CN(C(=O)C(CO)NS(=O)(=O)c1ccccc1)C2 (stereo not drawn) [LM6147]	–	abolished	1.1150	6.08	–
O=C(NC1(c2ccccc2)CC1)c1c(CN2CCC(N3CCCCC3)CC2)c(-c2cccc(C(F)(F)F)c2)nc2cc(Br)ccc12 [GSK219, reference compound]	–	–	–	–	Inhibition of agonist-elicited [Ca2+]i response [2, 7]: abolished the GSK101 action; Inhibition of agonist-induced Ca2+ influx ([1]; 100 nM GSK219 pre- and co-applied, TRPV4-HEK293 cells): abolished the action of GSK101 and compounds; Inhibition of agonist-elicited [Ca2+]i response [3, 7]: abolished the GSK101 action; Block of compound-induced pain-like behavior ([4]; GSK219 intraperitoneally 30 minutes before plantar injection of compounds (30 µM)): blocked the pain-like behavior induced by GSK101 derivatives
CC(C)CC(NC(=O)c1cc2ccccc2s1)C(=O)N1CC2(C1)CN(C(=O)C(CO)NS(=O)(=O)c1cccc(Cl)c1)C2 (stereo not drawn) [LM6142]	no measurable current	–	–	–	–
CC(C)C[C@H](NC(=O)c1cc2ccccc2s1)C(=O)N1CC2CCC(C1)N2C(=O)C(CO)NS(=O)(=O)c1ccc(Cl)cc1Cl (stereo partly drawn) [GM1004]	–	abolished	1.1650	11.5	–
CC(C)CC(NC(=O)c1cc2ccccc2s1)C(=O)N1CCCN(C(=O)C(CO)NS(=O)(=O)c2ccc(Cl)cc2Cl)CC1 (stereo not drawn) [LM0038]	–	abolished	1.0280	0.168	[Ca2+]i response [2]: induced a significant TRPV4-mediated calcium response; also recorded: weaker calcium influx than before; [Ca2+]i response [3]: induced a significant TRPV4-mediated calcium response; also recorded: signals with lower peaks than before
C[C@H](CCC(=O)O)C[C@H](C)C[C@H](C)C(=O)/C=C(\O)[C@H](C)C[C@H](C)C/C=C/[C@@H](C)[C@@H](O)[C@@H](C)[C@@H](O)C[C@@H]1CC[C@@](C)([C@H]2CC[C@@](C)([C@@H](C)O)O2)O1 [ionomycin, reference compound]	–	–	–	–	Intracellular calcium concentration (positive control) ([1]; 1 μM ionomycin, TRPV4-HEK293 cells): rapidly and significantly increased intracellular calcium concentration
CC(C)CC(NC(=O)c1cc2ccccc2s1)C(=O)N1CCN(C(=O)C(CO)NC(=O)c2ccc(Cl)cc2Cl)CC1 (stereo not drawn) [LM0024]	–	abolished	0.7036	20	–
CC(C)C[C@H](NC(=O)c1cc2ccccc2s1)C(=O)N1CCN(C(=O)[C@H](CO)NS(=O)(=O)c2ccc(Cl)cc2Cl)CC1 [GSK101, N-((1S)-1-{[4-((2S)-2-{[(2,4-dichlorophenyl)sulfonyl]amino}-3-hydroxypropanoyl)-1-piperazinyl]carbonyl}-3-methylbutyl)-1-benzothiophene-2-carboxamide, reference compound]	produced a Ca^2+ influx of different strengths	abolished	0.9273	–	[Ca2+]i response [2]: induced a significant TRPV4-mediated calcium response; EC50 [1]: 0.0137 µM; [Ca2+]i response [3]: induced a significant TRPV4-mediated calcium response; Mechanical hyperalgesia (paw withdrawal) vs control group ([4]; 30 µM, 10 µL intraplantar, wild-type mice): significantly induced mechanical hyperalgesia; Number of scratching bouts within 30 minutes (average) ([5]; 30 μM): 50; Number of scratches within 30 minutes (average) ([5]; 300 µM): 88
CC(C)CC(NC(=O)c1cc2ccccc2s1)C(=O)N1CC2(C1)CN(C(=O)C(CO)NS(=O)(=O)c1ccccc1Cl)C2 (stereo not drawn) [LM6146]	–	abolished	0.3283	78.9	Immediate pain-inducing effect compared with GSK101 ([4]; 30 µM intraplantar, 0 h, wild-type mice): slightly weaker than that of GSK101; Pain-inducing effect one hour post-injection compared with GSK101 ([4]; 30 µM intraplantar, 1 h, wild-type mice): reached a level comparable to GSK101
